Source: doi:10.1101/283176v2 (biorxiv, 2018)

Biological target: LeuT (Aquifex aeolicus, UniProt O67854)
Assay: scintillation proximity assay, displacement of [3H]leucine by alanine
Conditions: Na+ at its K0.5 (11.2 mM), pH 7.4 binding buffer, DDM

KI-ala: 2560 ± 510 nM
SMILES: C[C@H](N)C(=O)O [alanine]
